According to US20050080060A1, “Antigestagenically active steroids with a fluorinated 17alpha-alkyl chain” (priority 1997, published 2005):

What was measured:
Type in all cases: in vivo, rat
rats = experiment: Abortive test on rats s.c. and p.o.
Text: (§1) The tests below were all performed on rats according to known methods.
Abortive test s.c. and p.o.: See, for example, EP-A 0 283 428.

uterus weight = experiment: Uterus growth test on rats p.o. for estrogenic action; conditions: ovariectomized rats, 3-day treatment
Description: The tests below were all performed on rats according to known methods. Uterus growth test p.o. for estrogenic action: Stimulation of uterus weight with the test compound, vehicle: s.c. benzylbenzoate/castor oil (1+4); p.o. NaCl-myrj; 3-day treatment of ovariectomized animals; parameters: uterus weight and endometrial epithelium height; vaginal smear negative; reference compound: estradiol 0.1 μg.

prostate weight = experiment: Androgen test on rats p.o. (stimulation of the prostate weight)
Description: as §1
Androgen test p.o.: Stimulation of the prostate weight with the test compound, vehicle: s.c. benzylbenzoate, castor oil (1+4); p.o. NaCl-myrj; reference compound testosterone propionate. Virtually no stimulation of the prostate weight is observed up to a dose of 10 mg of test compound/animal/day.

[1] = tested on: dexamethasone-induced thymus suppression; experiment: Antithymolysis test on rats p.o. on antiglucocorticoid action
Text: The tests below were all performed on rats according to known methods. Antithymolysis test p.o. on antiglucocorticoid action: See, for example, EP-A 0 283 428.

| Compound | Abortive test on rats p.o. (n abortion/n total) (rats; dose 0.03 mg/animal/day) | Abortive test on rats p.o. (n abortion/n total) (rats; dose 0.1 mg/animal/day) | Abortive test on rats p.o. (n abortion/n total) (rats; dose 0.3 mg/animal/day) | Abortive test on rats s.c. (n abortion/n total) (rats; dose 0.03 mg/animal/day) | Abortive test on rats s.c. (n abortion/n total) (rats; dose 0.1 mg/animal/day) | Abortive test on rats s.c. (n abortion/n total) (rats; dose 0.3 mg/animal/day) | Uterus growth test on rats p.o. (% uterus weight stimulation) (uterus weight; dose 10 mg/animal/day) | Androgen test on rats p.o. (% prostate stimulation) (prostate weight; dose 1 mg/animal/day) | Androgen test on rats p.o. (% prostate stimulation) (prostate weight; dose 3 mg/animal/day) | Antithymolysis test on rats p.o. (% elimination of dexamethasone-induced thymus suppression) ([1]; dose 1 mg/animal/day) | Antithymolysis test on rats p.o. (% elimination of dexamethasone-induced thymus suppression) ([1]; dose 3 mg/animal/day) | Antithymolysis test on rats p.o. (% elimination of dexamethasone-induced thymus suppression) ([1]; dose 10 mg/animal/day) | Androgen test on rats p.o. (% prostate stimulation) (prostate weight; dose 10 mg/animal/day) | Abortive test on rats p.o. (n abortion/n total) (rats; dose 0.003 mg/animal/day) | Abortive test on rats p.o. (n abortion/n total) (rats; dose 0.01 mg/animal/day) | Antithymolysis test on rats p.o. (% elimination of dexamethasone-induced thymus suppression) ([1]; dose 2.2 mg/animal/day) | Antithymolysis test on rats p.o. (% elimination of dexamethasone-induced thymus suppression) ([1]; dose 6.7 mg/animal/day) | Antithymolysis test on rats p.o. (% elimination of dexamethasone-induced thymus suppression) ([1]; dose 22 mg/animal/day) | Uterus growth test on rats p.o. (% uterus weight stimulation) (uterus weight; dose 3 mg/animal/day) |
| --- | --- | --- | --- | --- | --- | --- | --- | --- | --- | --- | --- | --- | --- | --- | --- | --- | --- | --- | --- |
| CC(=O)c1ccc(C2CC3(C)C(CCC3(O)C(F)(F)C(F)(F)F)C3CCC4=CC(=O)CCC4C23)cc1 (stereo not drawn) [Compound A, 11β-(4-Acetylphenyl)-17β-hydroxy-17α-(1,1,2,2,2-pentafluoroethyl)estr-4-en-3-one] | (4/4) | (4/4) | (4/4) | (4/4) | (4/4) | (4/4) | (3.7) % | (4.8) % | (3.3) % | (6.0) % | (7.4) % | (11.5) % |  |  |  |  |  |  |  |
| CC#C[C@]1(O)CC[C@H]2[C@@H]3CCC4=CC(=O)CCC4=C3[C@@H](c3ccc(N(C)C)cc3)C[C@@]21C [D, 11β-[4-(Dimethylamino)phenyl]-17β-hydroxy-17α-(1-propinyl)estra-4,9-dien-3-one, reference compound] |  |  |  |  |  |  | (6.4) % | (1.6) % | (2.9) % | (19) % | (79) % | (76) % | (7.2) % |  |  |  |  |  |  |
| 6′-Acetyl-9,11α-dihydro-17β-hydroxy-17α-(1,1,2,2,2-pentafluoroethyl)-4′H-naphth[3′,2′,1′:10,9,11]estr-4-en-3-one [Compound C] | (4/4) | (4/4) | (4/4) | (4/4) | (4/4) | (4/4) | (4.4) % |  |  |  |  |  |  | (4/4) | (4/4) | (7.2) % | (31.6) % | (18.8) % |  |
| CC(=O)c1ccc([C@H]2C[C@@]3(C)[C@@H](CC[C@@]3(O)C(F)(F)C(F)(F)F)[C@@H]3CCC4=CC(=O)CCC4=C32)cc1 [B, 11β-(4-Acetylphenyl)-17β-hydroxy-17α-(1,1,2,2,2-pentafluoroethyl)estra-4,9-dien-3-one] | (4/4) | (4/4) | (4/4) | (4/4) | (4/4) | (4/4) | (2.6) % | (2.1) % | (0) % | (1.2) % | (21.6) % | (18.2) % |  |  |  |  |  |  |  |
| C=C1CCOC12CCC1C3CCC4=CC(=O)CCC4=C3C(c3ccc(C(C)=O)cc3)CC12C (stereo not drawn) [E, 11β-(4-Acetylphenyl)-19,24-dinor-17,23-epoxy-17α-chola-4,9,20-trien-3-one, reference compound] | (0/4) | (4/4) | (4/4) | (0/4) | (3/4) | (4/4) | (2.4) % | (4.0) % | (5.6) % | (4.3) % | (19.1) % | (44.7) % | (4.4) % |  |  |  |  |  | (1.3) % |
